One data set addresses RNA-polymerase II (Homo sapiens, UniProt P24928). Particulars: not covalently bound; read-out: KD of complex between amanitin and RNA-polymerase II; cited from earlier work.
Another data set has as its system BxPC-3 tumor xenografts. Kind of data set: BxPC-3 xenograft mouse tumor model. The format is in vivo, NOD/SCID mice. The procedure:
(§1) Five- to six-week old immunodeficient NOD/SCID mice were used for all experiments. BxPC-3 pancreatic or PC-3 prostate tumor cells (5×10^6 in 100 pi PBS) were transplanted subcutaneously to the right flank of the mice. Ten days later, when BxPC-3 tumors reached a volume of 30-80 mm^3 and PC-3 tumors reached a volume of 40-190 mm^3, the treatment was initiated. Animals received either control huHEA125 mAb at a dose of 15 mg/kg or huHEA125-amanitin conjugate (huHEA125-Ama) at a dose of 50 μg/kg of amanitin. Antibody and conjugate were administered as a single intraperitoneal injection.
(§2) Tumor growth was monitored for 16 days after initiation of the treatment. Tumor size was measured externally every third day using a caliper. Tumor volume was calculated according to the formula: V=π/6*a*b*c, where a, b and c are diameters in three dimensions. Data are presented as a relative tumor size/volume increase from the time of antibody administration.

The next data set has as its system PC-3 tumor xenografts. Kind of data set: PC-3 xenograft mouse tumor model. It is filed as in vivo, NOD/SCID mice. The procedure: as §1, §2
Data set [1] has as its target T1, epithelial cell adhesion molecule (EpCAM) (human, UniProt P16422 24-314).
T1 construct: whole, on cells; also called CD326; EpCAM antigen
T1 sequence (looked up): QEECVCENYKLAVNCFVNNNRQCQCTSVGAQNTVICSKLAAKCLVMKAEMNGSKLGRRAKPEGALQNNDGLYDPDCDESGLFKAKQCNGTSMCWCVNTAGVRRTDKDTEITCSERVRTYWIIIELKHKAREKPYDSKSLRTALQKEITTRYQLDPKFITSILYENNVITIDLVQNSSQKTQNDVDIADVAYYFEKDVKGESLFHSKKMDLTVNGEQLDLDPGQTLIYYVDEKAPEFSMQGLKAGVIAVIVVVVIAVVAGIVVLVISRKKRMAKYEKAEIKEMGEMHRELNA
Put plainly: binding to EpCAM-expressing cells; method not stated.

The mark [2] stands for this setting: 50 μg/kg of amanitin, single i.p. injection, BxPC-3.
Where [3] appears, read: 50 μg/kg of amanitin, single i.p. injection, PC-3 tumor bearing mice.

This is an account of results in patent publication US20120213805A1, “Amatoxin-Armed Tartget-Binding Moieties for the Treatment of Cancer” (priority 2009, published 2012).

The term Kd denotes the constant that tells how readily two partners part at equilibrium. For the molecule amanitin, at RNA-polymerase II, the Kd was 3 nM.

Regarding “huHEA125: chimeric anti-EpCAM antibody: mouse HEA125 variable domains with human kappa constant light chain and human IgG1 constant heavy chain”, the tumor volume increase entry with BxPC-3 tumor xenografts (15 mg/kg single i.p. injection, day 16, BxPC-3, FIG. 9) is “approximately 880%”; with PC-3 tumor xenografts (15 mg/kg single i.p. injection, day 10, PC-3, FIG. 10) it was “approximately 550%”.

For the molecule “α-Amanitin-glutarate-huHEA125 [huHEA125-amanitin]”, the “day from which tumor volume regressed dramatically” value with BxPC-3 tumor xenografts (setting [2]) is 7 days. In the data set with BxPC-3 tumor xenografts (setting [2]), the “mice responding to treatment” value is recorded as “All mice responded to treatment”. The tumor growth entry with BxPC-3 tumor xenografts (setting [2]) is reported as “strongly inhibited”; with PC-3 tumor xenografts (50 μg/kg of amanitin, single i.p. injection, PC-3), “strongly retarded”. Further, the “body weight of the mice” value in the data set with BxPC-3 tumor xenografts (50 μg/kg of amanitin, single i.p. injection, BxPC-3 tumor bearing mice) is listed as “neither a decrease in body weight”; in the data set on PC-3 tumor xenografts (setting [3]), “No decrease in the body weight”. In the data set on BxPC-3 tumor xenografts (50 μg/kg of amanitin, single i.p. injection, day 16, BxPC-3), the “mice with tumor completely eradicated” value is 50%. The tolerability entry in the data set with BxPC-3 tumor xenografts (50 μg/kg of amanitin, single intraperitoneal injection, BxPC-3 tumor bearing mice) was “well tolerated”; with PC-3 tumor xenografts (setting [3]) it was “well tolerated”.

B1: chimeric antibody huHEA125 (antibody, human IgG1, kappa, V domains shown)
VH: EVKLLESGGGLVQPGGSLKLSCAASGFDFSRFWMTWVRQAPGKGLEWIGEINLDSSTINYTPSLKDKFIISRDNAKNTLFLQMSKVRSEDTALYYCSRGISMDYWGQGTSVTVSS
VL: DILLTQSPAILSVSPGERVSFSCRASQSIGISLHWYQQRPSDSPRLLIKYASESISGIPSRFSGSGSGTDFTLSINSVESEDIADYYCQQSNIWPTTFGAGTKLELKR
notes: also called unmodified huHEA125 antibody; non-conjugated huHEA125 antibody
In turn, B1 displayed a Kd in data set [1] of 2.2 nM.
